Active and inactive are the calls of the source.
What was measured:
[1] = HepG2 cell cytotoxicity, dose response, cytotoxicity control, plate reader, cherry-pick, antagonist series (AID 743416); format: functional, cell-based
[2] = A549 cell cytotoxicity, dose response, cytotoxicity control, plate reader, cherry-pick, antagonist series (AID 743412); format: functional, cell-based
[3] = LGR2 antagonists, dose response, cell-based, HEK293, CRE-luciferase reporter, cherry pick, set 2 (AID 743343); format: functional;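 further: transfected cells were stimulated with diluted bursicon conditioned medium after compound addition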
[4] = MC4R antagonists, dose response, counter-screen for LGR2 antagonist project, cell-based, plate reader, cherry pick (AID 743444); format: functional;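 further: transfected HEK 293 cells stimulated with alpha-MSH peptide; potency of inhibitors of the alpha-MSH evoked signal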
[5] = A Cell Based Secondary Assay To Explore Cytotoxicity of Compounds that Sensitize Mycobacterium Tuberculosis to Beta-Lactam Antibiotics.; format: functional
[6] = HEK293 cell cytotoxicity, dose response, cytotoxicity control, plate reader, cherry-picked samples (AID 743446); format: functional, cell-based
[7] = Luminescence Cell-Based Dose Retest to Confirm Inhibitors of Cancer Stem Cells. [Related pubchem assays (depositor defined):AID2717, AID2721]; format: functional; details: Homo sapiens
[8] = tested on: Escherichia coli; assay: microbe, parasite or virus in culture
[9] = target: T1, DNA repair and recombination protein RAD54-like (Homo sapiens, UniProt Q92698); assay: inhibitors of human RAD54 branch migration, confirmation, biochemical, fluorescence, cherry-picked samples, dose series (AID 651657); format: functional
T1 sequence (Q92698 whole entry): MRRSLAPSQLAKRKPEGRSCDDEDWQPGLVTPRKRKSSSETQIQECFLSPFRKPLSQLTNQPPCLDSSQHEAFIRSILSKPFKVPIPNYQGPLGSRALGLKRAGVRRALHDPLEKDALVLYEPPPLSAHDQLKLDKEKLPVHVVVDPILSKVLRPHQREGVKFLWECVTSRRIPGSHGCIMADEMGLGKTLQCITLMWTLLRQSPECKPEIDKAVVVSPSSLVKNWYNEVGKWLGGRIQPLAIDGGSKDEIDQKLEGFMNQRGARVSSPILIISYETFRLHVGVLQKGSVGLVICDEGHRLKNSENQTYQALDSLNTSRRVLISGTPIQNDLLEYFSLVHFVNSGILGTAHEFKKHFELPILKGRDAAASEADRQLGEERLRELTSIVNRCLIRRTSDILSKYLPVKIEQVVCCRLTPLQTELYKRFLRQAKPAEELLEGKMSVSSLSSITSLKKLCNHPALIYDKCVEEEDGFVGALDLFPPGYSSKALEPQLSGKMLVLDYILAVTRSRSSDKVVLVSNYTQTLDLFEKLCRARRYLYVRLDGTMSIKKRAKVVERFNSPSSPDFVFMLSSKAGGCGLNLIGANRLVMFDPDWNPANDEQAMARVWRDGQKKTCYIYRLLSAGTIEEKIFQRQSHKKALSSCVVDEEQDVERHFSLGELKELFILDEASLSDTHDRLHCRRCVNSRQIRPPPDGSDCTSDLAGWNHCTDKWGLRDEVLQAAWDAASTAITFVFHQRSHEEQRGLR

[10] = target: T2, DNA repair protein RAD52 homolog (Homo sapiens, UniProt P43351); format: functional, biochemical
T2 sequence (P43351 whole entry): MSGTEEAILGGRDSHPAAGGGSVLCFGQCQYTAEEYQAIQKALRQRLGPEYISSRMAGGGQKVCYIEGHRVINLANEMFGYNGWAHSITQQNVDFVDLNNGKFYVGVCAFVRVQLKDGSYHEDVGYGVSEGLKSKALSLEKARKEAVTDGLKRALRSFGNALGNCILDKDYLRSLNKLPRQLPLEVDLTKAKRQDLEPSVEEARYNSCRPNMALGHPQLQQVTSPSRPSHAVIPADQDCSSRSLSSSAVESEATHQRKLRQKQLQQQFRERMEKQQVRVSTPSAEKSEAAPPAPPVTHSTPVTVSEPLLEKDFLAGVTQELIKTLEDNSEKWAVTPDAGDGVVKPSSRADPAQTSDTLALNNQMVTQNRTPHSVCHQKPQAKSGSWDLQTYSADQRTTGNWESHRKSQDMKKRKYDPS

[11] = target: T3, Ubiquitin-conjugating enzyme E2 N (Homo sapiens, UniProt P61088); format: functional;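 further: Dose-response confirmation in a TR-FRET assay detecting UBC13-driven polyubiquitin chain formation, inhibition measured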
T3 sequence (P61088 whole entry): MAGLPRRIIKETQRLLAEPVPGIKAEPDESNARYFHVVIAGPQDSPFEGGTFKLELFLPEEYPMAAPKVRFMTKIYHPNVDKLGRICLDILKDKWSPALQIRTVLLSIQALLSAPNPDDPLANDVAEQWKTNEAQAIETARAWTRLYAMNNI

[12] = A cytotoxicity screen of small molecule inhibitors of the PhoP region in Salmonella typhi identified in the primary screen. [Related pubchem assays: 1850, 1864, 1985 ]; format: functional
[13] = target: T4, Protein RecA (Mycobacterium tuberculosis, UniProt P9WHJ3); assay: Fluorescence Cell-Free Homogeneous Dose Retest to Identify Inhibitors of RecA-Intein Splicing Activity. [Related pubchem assays (depositor defined):AID2097, AID2223, AID489010, AID492950]; format: functional
T4 sequence (P9WHJ3 whole entry): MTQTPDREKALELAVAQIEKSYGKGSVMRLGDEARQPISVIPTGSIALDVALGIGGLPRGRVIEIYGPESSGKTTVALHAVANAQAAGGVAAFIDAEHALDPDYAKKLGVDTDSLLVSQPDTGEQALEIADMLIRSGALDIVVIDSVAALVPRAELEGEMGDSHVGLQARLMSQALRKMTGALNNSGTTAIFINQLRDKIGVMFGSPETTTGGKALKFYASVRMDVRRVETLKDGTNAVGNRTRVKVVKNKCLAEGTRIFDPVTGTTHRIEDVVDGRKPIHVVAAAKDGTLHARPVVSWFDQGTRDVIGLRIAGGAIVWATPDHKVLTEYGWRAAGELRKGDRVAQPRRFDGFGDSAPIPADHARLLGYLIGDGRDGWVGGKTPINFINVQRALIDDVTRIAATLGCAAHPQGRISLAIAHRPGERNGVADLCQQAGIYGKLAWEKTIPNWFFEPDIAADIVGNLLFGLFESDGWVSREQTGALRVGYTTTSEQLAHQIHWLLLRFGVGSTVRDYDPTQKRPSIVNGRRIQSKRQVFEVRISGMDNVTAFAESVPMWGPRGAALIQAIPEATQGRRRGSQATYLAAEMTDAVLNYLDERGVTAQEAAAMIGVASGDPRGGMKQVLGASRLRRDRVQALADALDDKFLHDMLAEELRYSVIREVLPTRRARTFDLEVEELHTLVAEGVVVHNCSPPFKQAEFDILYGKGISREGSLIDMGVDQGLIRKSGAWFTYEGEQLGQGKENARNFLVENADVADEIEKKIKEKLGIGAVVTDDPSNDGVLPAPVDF

[14] = target: T5, Replicative DNA helicase DnaB (Mycobacterium tuberculosis, UniProt P9WMR3); assay: DnaB intein splicing inhibitors, dose response, biochemical, cell-free fluorescence (AID 449749); format: functional
T5 sequence (P9WMR3 whole entry): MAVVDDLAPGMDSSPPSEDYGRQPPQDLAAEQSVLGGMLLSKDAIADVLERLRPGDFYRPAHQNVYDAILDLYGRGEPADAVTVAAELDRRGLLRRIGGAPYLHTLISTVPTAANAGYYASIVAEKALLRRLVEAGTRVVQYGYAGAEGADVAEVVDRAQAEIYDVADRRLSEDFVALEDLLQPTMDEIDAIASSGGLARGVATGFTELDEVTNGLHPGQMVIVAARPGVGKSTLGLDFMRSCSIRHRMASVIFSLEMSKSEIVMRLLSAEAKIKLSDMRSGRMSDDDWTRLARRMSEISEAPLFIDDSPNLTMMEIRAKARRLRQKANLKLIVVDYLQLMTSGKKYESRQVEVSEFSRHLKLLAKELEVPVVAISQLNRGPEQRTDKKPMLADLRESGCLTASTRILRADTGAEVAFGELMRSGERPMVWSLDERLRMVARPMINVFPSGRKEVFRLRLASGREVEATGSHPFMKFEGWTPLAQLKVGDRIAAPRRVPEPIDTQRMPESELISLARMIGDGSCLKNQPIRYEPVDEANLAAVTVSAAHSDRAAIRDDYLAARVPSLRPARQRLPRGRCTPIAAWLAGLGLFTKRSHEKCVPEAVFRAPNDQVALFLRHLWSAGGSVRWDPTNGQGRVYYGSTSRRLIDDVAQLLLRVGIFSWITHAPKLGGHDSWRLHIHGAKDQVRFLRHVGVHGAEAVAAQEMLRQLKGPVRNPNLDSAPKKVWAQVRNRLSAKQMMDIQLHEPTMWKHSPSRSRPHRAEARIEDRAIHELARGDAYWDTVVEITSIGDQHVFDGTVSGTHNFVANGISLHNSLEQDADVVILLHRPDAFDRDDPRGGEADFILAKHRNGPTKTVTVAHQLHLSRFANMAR

[15] = Fluorescence-based cell-based high throughput dose response assay for inhibitors of the interaction of nucleotide-binding oligomerization domain containing 2 (NOD2) and the receptor-interacting serine-threonine kinase 2 (RIPK2).; format: functional, Homo sapiens
[16] = target: T6, Short transient receptor potential channel 4 (Mus musculus, UniProt Q9QUQ5); assay: mouse TRPC4 channel activators, dose response, cell-based, HEK293 TRPC4/mu-opioid, Fluo-4 calcium (AID 434937); format: functional
T6 sequence (Q9QUQ5 whole entry): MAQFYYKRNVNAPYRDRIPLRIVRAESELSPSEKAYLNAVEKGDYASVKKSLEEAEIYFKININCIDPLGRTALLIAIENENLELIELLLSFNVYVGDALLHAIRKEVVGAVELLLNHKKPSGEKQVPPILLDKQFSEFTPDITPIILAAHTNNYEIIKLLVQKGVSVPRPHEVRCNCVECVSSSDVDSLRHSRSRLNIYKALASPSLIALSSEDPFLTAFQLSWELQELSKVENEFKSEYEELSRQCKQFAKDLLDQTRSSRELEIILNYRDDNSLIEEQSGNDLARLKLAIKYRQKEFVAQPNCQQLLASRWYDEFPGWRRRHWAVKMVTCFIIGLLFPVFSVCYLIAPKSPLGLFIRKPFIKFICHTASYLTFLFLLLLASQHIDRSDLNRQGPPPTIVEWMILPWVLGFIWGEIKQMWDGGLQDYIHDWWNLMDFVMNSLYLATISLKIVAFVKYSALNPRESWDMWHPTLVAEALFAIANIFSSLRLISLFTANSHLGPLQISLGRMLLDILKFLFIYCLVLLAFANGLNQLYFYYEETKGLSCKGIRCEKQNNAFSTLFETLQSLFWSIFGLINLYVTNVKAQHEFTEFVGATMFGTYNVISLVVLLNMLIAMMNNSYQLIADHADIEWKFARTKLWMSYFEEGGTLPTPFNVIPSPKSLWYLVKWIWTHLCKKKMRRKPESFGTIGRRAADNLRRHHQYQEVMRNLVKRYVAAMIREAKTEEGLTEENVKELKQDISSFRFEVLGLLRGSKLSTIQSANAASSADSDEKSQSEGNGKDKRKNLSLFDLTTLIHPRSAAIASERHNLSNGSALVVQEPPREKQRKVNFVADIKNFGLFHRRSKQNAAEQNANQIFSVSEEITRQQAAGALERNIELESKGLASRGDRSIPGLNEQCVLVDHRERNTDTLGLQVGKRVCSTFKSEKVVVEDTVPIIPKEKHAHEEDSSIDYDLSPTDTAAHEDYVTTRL

[17] = target: Cytochrome P450 2C19 (Homo sapiens, UniProt P33261); assay: Cytochrome panel assay with activity outcomes. Panel member name: p450-cyp2c19 Compounds with AC50 equal or less than 10 uM are considered active; format: functional; details: read-out: AC50
[18] = target: Heat shock protein HSP 90-alpha (Homo sapiens, UniProt P07900); format: functional, organism-based

Chain of Cytochrome P450 2C19 (P33261 whole entry): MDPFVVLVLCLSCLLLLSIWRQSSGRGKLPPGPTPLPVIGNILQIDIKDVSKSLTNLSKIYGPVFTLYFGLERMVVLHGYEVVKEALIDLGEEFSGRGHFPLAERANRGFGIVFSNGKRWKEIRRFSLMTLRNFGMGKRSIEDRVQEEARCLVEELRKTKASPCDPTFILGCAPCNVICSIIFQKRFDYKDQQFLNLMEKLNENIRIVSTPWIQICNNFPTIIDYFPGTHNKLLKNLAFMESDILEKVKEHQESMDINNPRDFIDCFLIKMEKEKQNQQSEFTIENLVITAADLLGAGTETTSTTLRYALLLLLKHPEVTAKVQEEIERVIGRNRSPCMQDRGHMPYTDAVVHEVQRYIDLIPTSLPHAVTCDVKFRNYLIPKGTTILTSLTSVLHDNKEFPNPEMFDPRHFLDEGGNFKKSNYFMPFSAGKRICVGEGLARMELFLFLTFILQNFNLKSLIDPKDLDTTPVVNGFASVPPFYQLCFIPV

For `Cn1nnnc1Sc1ncnc2scc(-c3ccc(C(F)(F)F)cc3)c12`, the AC50 [1] was 8.47 µM (active), the AC50 [2] was 7.67 µM (active) and the AC50 [3] was 14.8 µM (active). The AC50 [4] was 17.7 µM (active), the CC50 [5] was 6.16 µM (active) and the AC50 [6] was 8.08 µM (active). For the same compound, the AC50 [7] was 2.52 µM (active).
For `CCOc1ncccc1C(=O)N(CC)CC(=O)Nc1ccc(NC(C)=O)cc1`, the AC50 [8] was 96.8 µM (active).
In the case of `NC(=O)CN1CCN(CCN2C(=O)c3cccc4cccc(c34)C2=O)CC1`, the AC50 [9] is reported as 13.3 µM (active) and the AC50 [10] is reported as 12.1 µM (active).
With `Cc1ccc(NC(=O)c2ccc(Oc3ncccn3)cc2)cc1` the AC50 [8] was 37.9 µM (active).
For `CCC(C(=O)NC1CCCC1)N(C(=O)c1snc(C(N)=O)c1N)c1ccc(OC)cc1` (stereo not given), the IC50 [11] was > 20 µM (inactive).
For `CCn1cc(C(=O)NCCCN(C)C)c(=O)c2cc(F)c(N3CCN(C)CC3)cc21`, the EC50 [12] was > 50 µM (active).
With `CC1CCCCN1S(=O)(=O)c1ccc(NC(=O)c2ccco2)cc1` (stereo not given) the AC50 [8] was 32.1 µM (active).
With `COc1ccc(C[C@@H]2CN3C(=NC[C@@H]3Cc3ccc(O)cc3)N2C[C@H](C)NC(=O)CCC2CCCCC2)cc1` the IC50 [11] was > 20 µM (inactive).
With `O=C1NC(=O)N(CCc2ccccc2)C(=O)/C1=C/NCc1ccc2c(c1)OCO2` the AC50 [8] was 43.4 µM (active).
With `COc1ccccc1-n1nc(C(=O)Nc2ccc3c(c2)OCO3)c2ccccc2c1=O` the AC50 [8] was 74.7 µM (active).
In the case of `CC(=O)NCCn1c(SCc2ccccc2C)nc2ccccc2c1=O`, the EC50 [12] is reported as > 50 µM (active), the EC50 [13] is reported as 83.2 µM (active) and the AC50 [14] is reported as 28.4 µM (active).
For `CC(=O)OC1CC2OC3C=C(C)CCC3(C)C1(C)C21CO1` (stereo not given), the IC50 [15] was 49.8 µM (inactive).
For `Cc1cc(C)c2nc(C)cc(Nc3ccc(C(=O)NCCO)cc3)c2c1`, the AC50 [9] was 32.6 µM (active).
For `CCN(CC)CCNC(=O)c1cc2c(=O)n(C)c3ccccc3c2n1C`, the AC50 [9] was 18.3 µM (active).
For `O=C(O)C1C2C=CC(C2)C1C(=O)N1CCN(C/C=C/c2ccccc2)CC1` (stereo not given), the EC50 [16] was 5.96 µM (active) and the AC50 [17] was 14.1 µM (inconclusive).
With `CC1CC(C)CN(CCCNC(=O)COc2cc(=O)n(C)c3ccccc23)C1` (stereo not given) the EC50 [16] was 0.749 µM (active).
In the case of `C[C@@H](C(=O)NC1CCCC1)N1C(=O)N2CCc3c([nH]c4ccccc34)[C@@]2(C)C1=O`, the EC50 [12] is reported as > 50 µM (active).
In the case of `CCCCN(CC)CCCNC(=O)c1cc2c(-c3ccc(OC)c(OC)c3)nn(C)c2s1`, the AC50 [9] is reported as 9.31 µM (active) and the AC50 [10] is reported as 3.21 µM (active).
With `OC(Cn1cncn1)(c1ccccc1)c1ccccc1` the AC50 [18] was 1.43 µM (active).

— ChEMBL document CHEMBL1201862, “PubChem BioAssay data set” (2004)
